# What was measured:
# [1] = Chemical stability of P3; format: physicochemical
# [2] = system: B lymphocytes; assay: Activity in B lymphocytes; format: cell-based
# [3] = system: Raji; assay: Retinol metabolism, Raji; format: in vitro ADME, human
# Method: (§1) Legend: 2.5×10^6 cells were grown overnight in 5 ml RPMI/10% FBS. The FBS was preincubated at room temperature with 14.4 uCi [^3 H] retinol (NEN) for 4h. The cell pellet was washed twice with PBS. The retinoid were extracted according to MClean et al. 90 and separated on an analytical c18 reverse phase column according to FIG. 7. The DPM were determined using an on-line scintillation counter.
# [4] = system: thymocytes; assay: Viable and blast cell counts of thymocytes (trypan blue); format: cell-based, BALB/c mouse
# Method: FIG. 14C: BALB/c thymocytes (3×10^6 /ml) were activated with anti-CD3e mAb as FIG. 1A. The total number of viable cells was determined by counting trypan blue-excluding cells, and those of blast cells by counting viable large cells in six replicate wells. Because of the relatively low cell density required in the culture (see FIG. 14A), the numbers reported for blast cells are best estimates.
# Thymuses of 3 to 6-week-old BALB/c mice were teased in serum-free RPMI medium supplemented with 1% BSA, 10^-6 M linoleic acid and antibiotics. Depletion of accessory cells was achieved by two cycles of complement-dependent lysis with a mixture of anti-IA^d (5 μg/ml) and anti-IE^d (1:500 diluted ascites fluid). Briefly, cells were incubated on ice for 30 minutes with Ia antibodies, spun down, resuspended in 1:40 diluted rabbit complement, and incubated at 37° C. for 45 minutes. Incubations and two subsequent washes were carried out with RPMI medium containing 1% BSA. Cell viability was evaluated by trypan blue dye exclusion. To determine the extent of depletion of accessory cells, samples were stained with FITC-conjugated anti-Fc receptor antibody and analyzed by flow cytometry on a FACScan instrument (Becton Dickinson). No FcR-bearing cells were detected by this procedure.
# [5] = system: SLA; assay: Retinol metabolism, SLA; format: in vitro ADME, mouse
# Method: as §1
# [6] = system: 5/2 cells; format: in vitro ADME, human
# Method: 5/2 cells (10^6 cells in 10 ml HB 101 medium) were incubated with all-trans-[^3 H] retinol (10 uCe/ml). After 24 hours, retinoids were extracted from the washed cell pellet and unlabeled marker retinoids were added. The crude extract was loaded on an analytical reversed-phase C-18 column. Retinoids were eluted with the shown linear gradient of water/methanol/chloroform. The flow rate was 0.5 ml/min. DPM were determined with an on line scintillation counter. Reference retinoids were the all-trans forms of 0: 3,4-didehydroretinoic acid, 1: all-trans-retinoic acid, 2: 3,4-didehydroretinol, 3: retinol, 4: retinyl linoleate, 5: retinyl oleate, 6: retinyl palmitate. Shaded area corresponds to P3. Cross-hatched area corresponds to P1.
# Lymphoblastoid 5/2 cells grown in the presence of 10^-6 M retinol were spiked with ^3 H-labeled retinol. After 16 hours the cell pellet was delipidated according to the method of McLean et al. and separated on a reversed phase C-18 HPLC column (FIG. 7). […] Three peaks, P1, P2 and P3, could not be immediately identified. One peak eluting at 36-39 minutes (corresponding 83% methanol 7% water) provisionally called P3, but now known as 14HRR, was unusual because unlike P1 eluting at 31-34 minutes, its relative amount increased when the retinol concentration was lowered or when retinol was given to the cells bound to RBP. […] Since HeLa cells contain 14HRR, these cells were also used. 50 ml of packed HeLa cells (10^10 cells) yielded 25 OD348nmunits of pure P3 after the following sequence of steps: 1. Growth in the presence of 10^-5 M retinol; 2. Extraction of cell pellet according to McClean et al. (13); 3. Preparative C-18 HPLC column eluted with a water/methanol gradient; 4. semipreparative C18 HPLC column eluted with a water/acetonitrile gradient; 5. analytical C4 column eluted with a water/methanol gradient.
compound,measurement,setting,value
"CC(C=CC=C(C)C(O)CO)=CC=C1C(C)=CCCC1(C)C (stereo not drawn) [14HRR, 14-hydroxy-4,14-retro-retinol]",chemical stability,[1],unstable in chloroform and does not survive an acid extraction step
same,activity relative to all-trans retinol on a concentration basis,[2]; B cells,10-30 fold
same,potency relative to retinol in preventing necrotic cell death,[2]; concentration basis,20-40 times
"CC1=C(/C=C/C(C)=C/C=C/C(C)=C/CO)C(C)(C)CCC1 [retinol, all-trans retinol]",Ester (% of taken up retinol),[3]; 4°,0%
same,P3 (% of taken up retinol),[3]; 4°,0%
same,Total cts.,[3]; 4°,2.5 × 10^5 cts.
same,Ester (% of taken up retinol),[3]; 37°,14%
same,P3 (% of taken up retinol),[3]; 37°,3%
same,Total cts.,[3]; 37°,4.0 × 10^5 cts.
same,T cell activation / blast transformation by agent alone,[4]; alone,no discernible T cell activation
same,viability of thymocyte cultures,[4]; retinol by itself,"maintain a higher state of viability than anti-CD3e ""only"" stimulation"
same,Ester (% of taken up retinol),[5],9%
same,P3 (% of taken up retinol),[5],3%
same,Total cts.,[5],6.1 × 10^5 cts.
CC1=C(/C=C/C(C)=C/C=C/C(C)=C/C(=O)O)C(C)(C)CCC1 [all-trans retinoic acid],detection as metabolite of retinol,[6],not detectable

# — patent US5814612A, “Retinol derivatives and uses thereof” (priority 1992, dated 1998)
